Source: ChEMBL document CHEMBL1152860, “Synthesis and antiproliferative activity of 3-amino-N-phenyl-1H-indazole-1-carboxamides” (2009)
Active and inactive are the calls of the source. The calls are words filed in the database; no cut-off is given here.

Tests used:
OVCAR-4 = experiment: Growth inhibition of human OVCAR4 cells after 48 hrs by SRB assay; type: functional; conditions: OVCAR-4, 48 h
NCI-H460 = experiment: Growth inhibition of human NCI-H460 cells after 48 hrs by SRB assay; type: functional; conditions: NCI-H460, 48 h
K562 [1] = experiment: Cell cycle arrest in human K562 cells assessed as decrease in accumulation at S phase at 15.9 uM after 24 hrs using propidium iodide staining by flow cytometry; type: functional, cell-based
[2] = Growth inhibition of human Hs 578T cells after 48 hrs by SRB assay; type: functional
K562 [3] = experiment: Cell cycle arrest in human K562 cells assessed as accumulation at G0/G1 phase at 15.9 uM after 24 hrs using propidium iodide staining by flow cytometry; type: functional, cell-based
SR = experiment: Cell cycle arrest in human SR cells assessed as accumulation at G0/G1 phase at 0.0153 uM after 24 hrs using propidium iodide staining by flow cytometry; type: functional, cell-based
MDA-MB-435 = experiment: Growth inhibition of human MDA-MB-435 cells after 48 hrs by SRB assay; type: functional; conditions: MDA-MB-435, 48 h
CAKI-1 = experiment: Growth inhibition of human Caki1 cells after 48 hrs by SRB assay; type: functional; conditions: CAKI-1, 48 h
K562 [4] = experiment: Decrease in total phosphorylated retinoblastoma protein level in human K562 cells at 34 uM after 24 hrs by flow cytometry; type: functional, cell-based
OVCAR-8 = experiment: Growth inhibition of human OVCAR8 cells after 48 hrs by SRB assay; type: functional; conditions: OVCAR-8, 48 h
NCI-H322M = experiment: Growth inhibition of human NCI-H322M cells after 48 hrs by SRB assay; type: functional
CCRF-CEM = experiment: Growth inhibition of human CCRF-CEM cells after 48 hrs by SRB assay; type: functional
K562 [5] = experiment: Cell cycle arrest in human K562 cells assessed as decrease in accumulation at G2/M phase at 15.9 uM after 24 hrs using propidium iodide staining by flow cytometry; type: functional, cell-based
A549 = experiment: Growth inhibition of human A549 cells after 48 hrs by SRB assay; type: functional; conditions: A549, 48 h
HCT-116 = experiment: Growth inhibition of human HCT116 cells after 48 hrs by SRB assay; type: functional; conditions: HCT-116, 48 h
DU-145 = experiment: Growth inhibition of human DU145 cells after 48 hrs by SRB assay; type: functional; conditions: DU-145, 48 h
HCT-15 = experiment: Growth inhibition of human HCT15 cells after 48 hrs by SRB assay; type: functional; conditions: HCT-15, 48 h
SNB-19 = experiment: Growth inhibition of human SNB19 cells after 48 hrs by SRB assay; type: functional; conditions: SNB-19, 48 h
K562 [6] = experiment: Cell cycle arrest in human K562 cells assessed as decrease in accumulation at G2/M phase at 1.2 uM after 24 hrs using propidium iodide staining by flow cytometry; type: functional, cell-based
K562 [7] = experiment: Cell cycle arrest in human K562 cells assessed as accumulation at G0/G1 phase at 1.2 uM after 24 hrs using propidium iodide staining by flow cytometry; type: functional, cell-based
K562 [8] = experiment: Cell cycle arrest in human K562 cells assessed as decrease in accumulation at S phase at 1.2 uM after 24 hrs using propidium iodide staining by flow cytometry; type: functional, cell-based
SK-MEL-2 = experiment: Growth inhibition of human SK-MEL-2 cells after 48 hrs by SRB assay; type: functional; conditions: SK-MEL-2, 48 h
K562 [9] = experiment: Decrease in total phosphorylated retinoblastoma protein level in human K562 cells at 14 uM after 24 hrs by flow cytometry; type: functional, cell-based
[10] = read-out: LC50 (the source's name)

With `CCCCOc1ccc(NC(=O)n2nc(N)c3ccccc32)cc1` the GI50 (OVCAR-4) was 30.7 µM, the GI50 (NCI-H460) was 15.7 µM and the Activity (K562 [1]) was “Active”. For the same compound, the GI50 [2] was 20.2 µM, the Activity (K562 [3]) was “Active” and the Activity (SR) was “Active”. For the same compound, the GI50 (MDA-MB-435) was 19.1 µM, the GI50 (CAKI-1) was 28.3 µM and the Activity (K562 [4]) was “Active”. The GI50 (OVCAR-8) was 35.9 µM, the GI50 (NCI-H322M) was 20.6 µM and the GI50 (CCRF-CEM) was 0.213 µM. For the same compound, the LC50 (CCRF-CEM) was > 100 µM, the TGI (CCRF-CEM) was 17.5 µM and the Activity (K562 [5]) was “Active”. The GI50 (A549) was 23.5 µM, the GI50 (HCT-116) was 19.9 µM and the GI50 (DU-145) was 25 µM. The GI50 (HCT-15) was 15.5 µM and the GI50 (SNB-19) was 42.7 µM.
In the case of `Nc1nn(C(=O)Nc2ccc(Cc3ccccc3)cc2)c2ccccc12`, the GI50 (OVCAR-4) is reported as 10.7 µM, the GI50 (NCI-H460) is reported as 0.408 µM and the TGI (NCI-H460) is reported as 13 µM. The CC50 (NCI-H460; [10]) was 84.6 µM, the Activity (K562 [6]) was “Active” and the GI50 [2] was 17.2 µM. The Activity (SR) was “Active”, the GI50 (MDA-MB-435) was 2.82 µM and the TGI (MDA-MB-435) was > 100 µM. For the same compound, the CC50 (MDA-MB-435; [10]) was > 100 µM, the GI50 (CAKI-1) was 21.1 µM and the Activity (K562 [7]) was “Active”. For the same compound, the Activity (K562 [8]) was “Active”, the GI50 (SK-MEL-2) was 36.4 µM and the Activity (K562 [9]) was “Active”. The GI50 (OVCAR-8) was 21.9 µM, the GI50 (NCI-H322M) was 27.8 µM and the GI50 (A549) was 12.9 µM. It also gave a GI50 (HCT-116) of 7.03 µM, a GI50 (DU-145) of 1.02 µM and a TGI (DU-145) of 28.3 µM. The CC50 (DU-145; [10]) was > 100 µM, the GI50 (HCT-15) was 1.08 µM and the TGI (HCT-15) was > 100 µM. For the same compound, the CC50 (HCT-15; [10]) was > 100 µM and the GI50 (SNB-19) was 22.8 µM.
